According to PMC7462607 (eLife, 2020):
Values joined by “and” are separate entries in the source; they are usually repeats but may differ in a detail not shown here. Equal entries are not always repeated. Where two headings read alike, the source gives them in different places.

Test system: HCT-116 cells
Assay: Cell viability assay, parental HCT-116 and HQ461-resistant HCT-116 clones
Type: cell-based, Homo sapiens
Settings: for CellTiter-Glo (ATP): raw signal, listed as 0461; for IC50: Homo sapiens, HCT-116
Description: Seven hundred A549 cells or 1,000 HCT-116 cells in 50 µL of medium were plated per well in 384-well flat clear bottom white polystyrene TC-treated microplates (Corning, Corning, USA). After overnight attachment, cells were dosed with a serial dilution of HQ461 with a D300e digital dispenser (Tecan, Männedorf, Switzerland). Cell survival was measured 72 hr later using CellTiter-Glo luminescent cell viability assay kit (Promega, Madison, USA) following vendor instructions. Luminescence was recorded by EnVison multimode plate reader (PerkinElmer, Waltham, USA). IC50 was determined with GraphPad Prism using baseline correction (by normalizing to DMSO control), the asymmetric (five parameter) equation, and least squares fit.
Parental HCT-116 were plated sparsely on 10 cm plates to allow the isolation of ten individual clones. Each of these ten clones were expanded to one confluent 15 cm plate to establish ten independent cell populations. One million cells from each population were then plated on one 10 cm plate and treated with 20 µM HQ461 continuously for two weeks, with media change every 3 to 4 days. HQ461 resistant clones emerged from 5 out of the 10 populations. These clones were isolated, expanded, and tested for their sensitivity to HQ461 using cell viability assay. Five HQ461-resistant clones selected from independent populations were subjected to genomic DNA isolation as described in the previous session. Their genomic DNAs were then pooled in equal amounts for whole-exome sequencing at 200x average coverage (Novogene, Beijing, China). As a control, genomic DNAs isolated from the corresponding cell populations before HQ461 selection were also pooled for whole-exome sequencing. Raw sequencing data have been deposited to NCBI GEO (GSE153707).

## Cc1cccc(Nc2nc(CC(=O)Nc3ncc(C)s3)cs2)n1 [HQ461, 2-(2-((6-methylpyridin-2-yl)amino)thiazol-4-yl)-N-(5-methylthiazol-2-yl)acetamide]
HCT-116 Parental, 3.21364e-5 M
  CellTiter-Glo (ATP): 122490 and 116460
HCT-116 Parental, 5.00E-07 M
  CellTiter-Glo (ATP): 1.93E+06 and 2.16E+06
HCT-116 Parental, 5.19E-07 M
  CellTiter-Glo (ATP): 1.68E+06 and 1.79E+06
HCT-116 Parental, 7.99E-07 M
  CellTiter-Glo (ATP): 2.18E+06 and 1.85E+06
HCT-116 Parental, 8.79E-07 M
  CellTiter-Glo (ATP): 1.85E+06 and 1.84E+06
HCT-116 resistant clone 2R, 1.27872e-6 M
  CellTiter-Glo (ATP): 1.68E+06 and 1.80E+06
HCT-116 resistant clone 2R, 1.35864e-6 M
  CellTiter-Glo (ATP): 1.87E+06 and 1.72E+06
HCT-116 resistant clone 2R, 1.71705e-5 M
  CellTiter-Glo (ATP): 742920 and 664400
HCT-116 resistant clone 2R, 1.78082e-5 M
  CellTiter-Glo (ATP): 650900 and 675880
HCT-116 resistant clone 2R, 2.87969e-5 M
  CellTiter-Glo (ATP): 418620 and 384180
HCT-116 resistant clone 2R, 2.98307e-5 M
  CellTiter-Glo (ATP): 380430 and 316510
HCT-116 resistant clone 2R, 7.99E-07 M
  CellTiter-Glo (ATP): 1.71E+06 and 1.76E+06 and 1.66E+06 and 1.65E+06
HCT-116 resistant clone 5R, 1.1988e-6 M
  CellTiter-Glo (ATP): 1.40E+06 and 1.72E+06
HCT-116 resistant clone 5R, 1.27872e-6 M
  CellTiter-Glo (ATP): 1.47E+06 and 1.50E+06
HCT-116 resistant clone 5R, 1.59745e-5 M
  CellTiter-Glo (ATP): 708690 and 643890
HCT-116 resistant clone 5R, 1.65326e-5 M
  CellTiter-Glo (ATP): 713930 and 686510
HCT-116 resistant clone 5R, 2.67284e-5 M
  CellTiter-Glo (ATP): 402240 and 357240
HCT-116 resistant clone 5R, 2.77628e-5 M
  CellTiter-Glo (ATP): 421400 and 366190
HCT-116 resistant clone 5R, 7.19E-07 M
  CellTiter-Glo (ATP): 1.56E+06 and 1.54E+06 and 1.42E+06 and 1.57E+06
HCT-116 resistant clone 6R, 1.11888e-6 M
  CellTiter-Glo (ATP): 1.62E+06 and 1.45E+06
HCT-116 resistant clone 6R, 1.1988e-6 M
  CellTiter-Glo (ATP): 1.35E+06 and 1.55E+06
HCT-116 resistant clone 6R, 1.48579e-5 M
  CellTiter-Glo (ATP): 838610 and 815000
HCT-116 resistant clone 6R, 1.54163e-5 M
  CellTiter-Glo (ATP): 808740 and 730030
HCT-116 resistant clone 6R, 2.48182e-5 M
  CellTiter-Glo (ATP): 327830 and 270480
HCT-116 resistant clone 6R, 2.57734e-5 M
  CellTiter-Glo (ATP): 314810 and 296570
HCT-116 resistant clone 6R, 6.71E-07 M
  CellTiter-Glo (ATP): 1.36E+06 and 1.56E+06
HCT-116 resistant clone 6R, 6.95E-07 M
  CellTiter-Glo (ATP): 1.61E+06 and 1.53E+06
HCT-116 resistant clone 8R, 1.03896e-6 M
  CellTiter-Glo (ATP): 1.50E+06 and 1.58E+06
HCT-116 resistant clone 8R, 1.11888e-6 M
  CellTiter-Glo (ATP): 1.51E+06 and 1.63E+06
HCT-116 resistant clone 8R, 1.42995e-5 M
  CellTiter-Glo (ATP): 543300 and 1.00E+06
HCT-116 resistant clone 8R, 2.30667e-5 M
  CellTiter-Glo (ATP): 427880 and 390970
HCT-116 resistant clone 8R, 2.39426e-5 M
  CellTiter-Glo (ATP): 409850 and 403510
HCT-116 resistant clone 8R, 4.00787e-5 M
  CellTiter-Glo (ATP): 298050 and 276140
HCT-116 resistant clone 8R, 6.23E-07 M
  CellTiter-Glo (ATP): 1.45E+06 and 1.63E+06
HCT-116 resistant clone 8R, 6.47E-07 M
  CellTiter-Glo (ATP): 1.55E+06 and 1.60E+06
HCT-116 resistant clone 9R, 1.03896e-6 M
  CellTiter-Glo (ATP): 288440 and 333120
HCT-116 resistant clone 9R, 2.13941e-5 M
  CellTiter-Glo (ATP): 65580 and 36800
HCT-116 resistant clone 9R, 2.22704e-5 M
  CellTiter-Glo (ATP): 50040 and 30190
HCT-116 resistant clone 9R, 3.58708e-5 M
  CellTiter-Glo (ATP): 46680 and 23830
HCT-116 resistant clone 9R, 3.72209e-5 M
  CellTiter-Glo (ATP): 43970 and 22740
HCT-116 resistant clone 9R, 5.79E-07 M
  CellTiter-Glo (ATP): 315200 and 382800
HCT-116 resistant clone 9R, 5.99E-07 M
  CellTiter-Glo (ATP): 335950 and 324000
HCT-116 resistant clone 9R, 9.59E-07 M
  CellTiter-Glo (ATP): 277130 and 355980
HQ461-resistant HCT-116 clones
  increase of IC50 relative to parental HCT-116 cells: three-fold
Five HQ461-resistant clones, read-out: IC50 on the viability of five HQ461-resistant HCT-116 clones
  IC50: 13 to 14.3 µM
read-out: IC50 on the viability of parental HCT-116
  IC50: 4.6 µM
